Results: US11524968B2, “Heterocyclic compound as a protein kinase inhibitor” (HK inno.N Corporation, priority 2017, dated 2022)

biological target: JAK1 (Homo sapiens (Human), UniProt P23458); experiment: Analysis of JAK1 activity inhibition ability (ADP-Glo Kinase Assay); assay type: biochemical; conditions: JAK1 enzyme, ADP-Glo luminescence, ATP 250 uM, IRS-itide substrate, 30° C. 40 minutes; read-out: IC50
Procedure, shortened: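 ADP-Glo luminescence read-out of ADP production, with IC50 taken as the concentration halving JAK1 activity relative to control. Enzyme was incubated 40 min at 30 °C with compound, IRS-itide (40 ng/mL) and ATP (250 uM), concentrations as prepared in pH 7.5 Tris-HCl/MgCl2/BSA/DTT buffer.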

Chain of JAK1 (P23458 whole entry): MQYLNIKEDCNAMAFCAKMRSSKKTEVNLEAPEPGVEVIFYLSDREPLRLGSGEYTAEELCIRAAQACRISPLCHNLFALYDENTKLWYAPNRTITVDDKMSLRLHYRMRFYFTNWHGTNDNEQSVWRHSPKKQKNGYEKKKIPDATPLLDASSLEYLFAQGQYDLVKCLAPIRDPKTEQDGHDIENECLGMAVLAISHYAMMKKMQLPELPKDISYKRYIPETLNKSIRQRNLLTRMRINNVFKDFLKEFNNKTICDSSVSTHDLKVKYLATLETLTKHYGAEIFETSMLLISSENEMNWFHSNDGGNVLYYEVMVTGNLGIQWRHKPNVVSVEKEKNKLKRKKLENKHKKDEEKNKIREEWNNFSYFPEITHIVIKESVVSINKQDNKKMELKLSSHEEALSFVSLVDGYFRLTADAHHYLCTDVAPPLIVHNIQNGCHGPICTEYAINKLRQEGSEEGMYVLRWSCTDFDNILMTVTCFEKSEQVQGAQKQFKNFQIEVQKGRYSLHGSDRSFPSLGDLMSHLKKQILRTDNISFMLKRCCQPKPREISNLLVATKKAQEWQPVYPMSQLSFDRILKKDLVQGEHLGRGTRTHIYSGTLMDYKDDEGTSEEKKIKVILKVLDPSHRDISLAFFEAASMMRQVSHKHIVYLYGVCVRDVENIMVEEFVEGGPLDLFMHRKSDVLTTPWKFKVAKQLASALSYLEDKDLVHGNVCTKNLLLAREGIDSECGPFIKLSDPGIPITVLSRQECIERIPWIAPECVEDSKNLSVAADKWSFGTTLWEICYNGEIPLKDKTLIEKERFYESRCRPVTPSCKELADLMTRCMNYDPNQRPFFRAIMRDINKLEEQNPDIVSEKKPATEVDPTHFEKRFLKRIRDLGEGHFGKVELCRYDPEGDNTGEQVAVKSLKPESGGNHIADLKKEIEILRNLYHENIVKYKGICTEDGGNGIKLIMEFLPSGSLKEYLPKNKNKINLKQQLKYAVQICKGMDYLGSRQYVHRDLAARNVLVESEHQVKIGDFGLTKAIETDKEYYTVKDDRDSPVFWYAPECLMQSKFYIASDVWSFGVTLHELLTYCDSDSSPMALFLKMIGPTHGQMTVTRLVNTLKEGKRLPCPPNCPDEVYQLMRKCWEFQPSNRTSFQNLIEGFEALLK

SMILES | IC50 [nM]
N#CCC1(N2CC=C(c3cc(NC(=O)C4CC4)nc4[nH]ccc34)CC2)CN(C2CCN(C(=O)c3nc(C(F)(F)F)cs3)CC2)C1 [Example 621, N-(4-(1-(3-(cyanomethyl)-1-(1-(4-(trifluoromethyl)thiazole-2-carbonyl)piperidin-4-yl)azetidin-3-yl)-1,2,3,6-tetrahydropyridin-4-yl)-1H-pyrrolo[2,3-b]pyridin-6-yl)cyclopropanecarboxamide] | 20 to 200
N#CCC(=O)N1CCC(N2CC(CC#N)(N3CC=C(c4cc(NC(=O)C5CC5)nc5[nH]ccc45)CC3)C2)CC1 [Example 622, N-(4-(1-(1-(1-(2-cyanoacetyl)piperidin-4-yl)-3-(cyanomethyl)azetidin-3-yl)-1,2,3,6-tetrahydropyridin-4-yl)-1H-pyrrolo[2,3-b]pyridin-6-yl)cyclopropanecarboxamide] | 20 to 200
N#CCC1(N2CC=C(c3cc(NC(=O)C4CC4)nc4[nH]ccc34)CC2)CN(S(=O)(=O)c2ccc(F)cc2)C1 [Example 623, N-(4-(1-(3-(cyanomethyl)-1-((4-fluorophenyl)sulfonyl)azetidin-3-yl)-1,2,3,6-tetrahydropyridin-4-yl)-1H-pyrrolo[2,3-b]pyridin-6-yl)cyclopropanecarboxamide] | 20 to 200
N#CCC1(N2CC=C(c3cc(NC(=O)C4CC4)nc4[nH]ccc34)CC2)CN(C(=O)NCC(F)(F)F)C1 [Example 624, 3-(cyanomethyl)-3-(4-(6-(cyclopropanecarboxamido)-1H-pyrrolo[2,3-b]pyridin-4-yl)-3,6-dihydropyridin-1 (2H)-yl)-N-(2,2,2-trifluoroethyl)azetidine-1-carboxamide] | 20 to 200
N#CCC1(N2CC=C(c3cc(NC(=O)C4CC4)nc4[nH]ccc34)CC2)CN(C(=O)CC(F)(F)F)C1 [Example 625, N-(4-(1-(3-(cyanomethyl)-1-(3,3,3-trifluoropropanoyl)azetidin-3-yl)-1,2,3,6-tetrahydropyridin-4-yl)-1H-pyrrolo[2,3-b]pyridin-6-yl)cyclopropanecarboxamide] | 20 to 200
CCS(=O)(=O)N1CC(CC#N)(N2CC=C(c3cc(NC(=O)C4CC4)nc4[nH]ccc34)C(C)C2)C1 (centres unmarked) [Example 626, N-(4-(1-(3-(cyanomethyl)-1-(ethylsulfonyl)azetidin-3-yl)-3-methyl-1,2,3,6-tetrahydropyridin-4-yl)-1H-pyrrolo[2,3-b]pyridin-6-yl)cyclopropanecarboxamide] | < 20
CCS(=O)(=O)N1CC(CC#N)(N2CC=C(c3cc(NC(=O)C4CC4)nc4[nH]ccc34)[C@H](C)C2)C1 [Example 627, (S)—N-(4-(1-(3-(cyanomethyl)-1-(ethylsulfonyl)azetidin-3-yl)-3-methyl-1,2,3,6-tetrahydropyridin-4-yl)-1H-pyrrolo[2,3-b]pyridin-6-yl)cyclopropanecarboxamide] | < 20
C[C@@H]1CN(C2(CC#N)CN(S(=O)(=O)C(F)(F)F)C2)CC=C1c1cc(NC(=O)C2CC2)nc2[nH]ccc12 [Example 628, (S)—N-(4-(1-(3-(cyanomethyl)-1-((trifluoromethyl)sulfonyl)azetidin-3-yl)-3-methyl-1,2,3,6-tetrahydropyridin-4-yl)-1H-pyrrolo[2,3-b]pyridin-6-yl)cyclopropanecarboxamide] | < 20
CCS(=O)(=O)Oc1ccc(-c2cc(NC(=O)C3CC3)nc3[nH]ccc23)cc1 [Example 629, 4-(6-(cyclopropanecarboxamido)-1H-pyrrolo[2,3-b]pyridin-4-yl)phenyl ethanesulfonate] | 20 to 200
O=C(Nc1cc(-c2ccc(OS(=O)(=O)c3ccc(F)cc3)cc2)c2cc[nH]c2n1)C1CC1 [Example 630, 4-(6-(cyclopropanecarboxamido)-1H-pyrrolo[2,3-b]pyridin-4-yl)phenyl 4-fluorobenzenesulfonate] | > 200
CCCS(=O)(=O)Oc1ccc(-c2cc(NC(=O)C3CC3)nc3[nH]ccc23)cc1 [Example 631, 4-(6-(cyclopropanecarboxamido)-1H-pyrrolo[2,3-b]pyridin-4-yl)phenyl propane-1-sulfonate] | 20 to 200
CCCCS(=O)(=O)Oc1ccc(-c2cc(NC(=O)C3CC3)nc3[nH]ccc23)cc1 [Example 632, 4-(6-(cyclopropanecarboxamido)-1H-pyrrolo[2,3-b]pyridin-4-yl)phenyl butane-1-sulfonate] | 20 to 200
CC(C)S(=O)(=O)Oc1ccc(-c2cc(NC(=O)C3CC3)nc3[nH]ccc23)cc1 [Example 633, 4-(6-(cyclopropanecarboxamido)-1H-pyrrolo[2,3-b]pyridin-4-yl)phenyl propane-2-sulfonate] | 20 to 200
O=C(Nc1cc(-c2ccc(OS(=O)(=O)C3CCCCC3)cc2)c2cc[nH]c2n1)C1CC1 [Example 634, 4-(6-(cyclopropanecarboxamido)-1H-pyrrolo[2,3-b]pyridin-4-yl)phenyl cyclohexanesulfonate] | > 200
O=C(Nc1cc(-c2ccc(OS(=O)(=O)CCCF)cc2)c2cc[nH]c2n1)C1CC1 [Example 635, 4-(6-(cyclopropanecarboxamido)-1H-pyrrolo[2,3-b]pyridin-4-yl)phenyl 3-fluoropropane-1-sulfonate] | 20 to 200
C=CCS(=O)(=O)Oc1ccc(-c2cc(NC(=O)C3CC3)nc3[nH]ccc23)cc1 [Example 636, 4-(6-(cyclopropanecarboxamido)-1H-pyrrolo[2,3-b]pyridin-4-yl)phenyl prop-2-ene-1-sulfonate] | < 20
O=C(Nc1cc(-c2ccc(OS(=O)(=O)CC3CCCCC3)cc2)c2cc[nH]c2n1)C1CC1 [Example 637, 4-(6-(cyclopropanecarboxamido)-1H-pyrrolo[2,3-b]pyridin-4-yl)phenyl cyclohexylmethanesulfonate] | > 200
O=C(Nc1cc(-c2ccc(OS(=O)(=O)CC3CCOC3)cc2)c2cc[nH]c2n1)C1CC1 (centres unmarked) [Example 638, 4-(6-(cyclopropanecarboxamido)-1H-pyrrolo[2,3-b]pyridin-4-yl)phenyl (tetrahydrofuran-3-yl)methanesulfonate] | 20 to 200
N#CCCCS(=O)(=O)Oc1ccc(-c2cc(NC(=O)C3CC3)nc3[nH]ccc23)cc1 [Example 639, 4-(6-(cyclopropanecarboxamido)-1H-pyrrolo[2,3-b]pyridin-4-yl)phenyl 3-cyanopropane-1-sulfonate] | 20 to 200
N#CCCCn1ccc2c(-c3ccc(OS(=O)(=O)CCCC#N)cc3)cc(NC(=O)C3CC3)nc21 [Example 640, 4-(1-(3-cyanopropyl)-6-(cyclopropanecarboxamido)-1H-pyrrolo[2,3-b]pyridin-4-yl)phenyl 3-cyanopropane-1-sulfonate] | > 200
O=C(Nc1cc(-c2ccc(OCc3ccc(F)cc3)cc2)c2cc[nH]c2n1)C1CC1 [Example 641, N-(4-(4-((4-fluorobenzyl)oxy)phenyl)-1H-pyrrolo[2,3-b]pyridin-6-yl)cyclopropanecarboxamide] | > 200
O=C(Nc1cc(-c2ccc(OCCN3CCOCC3)cc2)c2cc[nH]c2n1)C1CC1 [Example 642, N-(4-(4-(2-morpholinoethoxy)phenyl)-1H-pyrrolo[2,3-b]pyridin-6-yl)cyclopropanecarboxamide] | 20 to 200
CCCCOc1ccc(-c2cc(NC(=O)C3CC3)nc3[nH]ccc23)cc1 [Example 643, N-(4-(4-butoxyphenyl)-1H-pyrrolo[2,3-b]pyridin-6-yl)cyclopropanecarboxamide] | > 200
